According to EP0672415A1, “Organopathy preventing, curing or ameliorating agent” (priority 1994, dated 1995):
“And” between values parts separate entries of the source, which are not always exact repeats. Equal values may be shown once. Read-outs that look alike come from different tables or passages of the source.

Legend:
[1] = test system: rat liver transplantation; settings: livers ischemic for 60 min, untreated group 0%, cited from earlier work
Slc:ICR mice = assay: Acute toxicity test, single intravenous administration, mice; type: in vivo, Mouse; settings: for Acute toxicity (LD₅₀): Mouse, Intravenous Injection, single administration
Description: (§1) A single administration toxicity test was carried out by effecting intravenous injections (medium: physiological saline) to a group consisting of five male and five female 7 to 8-weeks-old Slc:SD rats and a group consisting of five male and five female 7 to 8-weeks-old Slc:ICR mice.

Slc:SD rats = assay: Acute toxicity test, single intravenous administration, rats; type: in vivo, Rat; settings: for Acute toxicity (LD₅₀): Rat, Intravenous Injection, single administration
Description: as §1

[2] = test system: porcine liver transplantation model; assay: Porcine liver transplantation model (8 hr cold preservation, sympatric transplantation); type: in vivo, swine
Description: A model was employed in which swine each weighing 30 to 40 kg were used, the livers were extirpated therefrom and preserved at low temperature for 8 hr, and sympatric liver transplantation was carried out. More specifically, the swine were starved for 24 hr, and randomly divided into two groups. Group 1 consisted of 9 donors and 9 recipients, which were treated with the above compound of the present invention. In the surgical operation of the donors, the compound (I) was added to the perfusate and the preservation fluid (1 mg/ℓ). Further, the compound (I) was continuously intravenously administered to the recipients (0.3 mg/kg) and added, in the surgical operation thereof, to the washing fluid for washing away the preservation fluid from the interior of each of the transplant livers (1 mg/ℓ).
Group 2 as a control group not treated with the compound of the present invention consisted of 9 donors and 9 recipients, for which the same continuous intravenous administration was carried out with the use of the same fluids as for Group 1, except that the compound (I) was not added thereto. A University of Wisconsin (hereinafter referred to as "UW") fluid prepared in a simplified manner was used for the perfusion and preservation of the transplant livers. The fluid was one obtained by omitting hydroxyethylstarch from the composition of the UW fluid customarily employed in the preservation of livers.
For each of the donors, premedication with ketamine (10 mg/kg) was conducted, and the auricular vein was cannulated to initiate the administration of physiological saline. Ketamine (5 mg/kg, i.v.) and pancronium (0.2 mg/kg, i.v.) were administered, and thereafter the airway was secured. The donor under surgical operation was kept anesthetized by inhalation of 3 ℓ of oxygen, 4 ℓ of laughing gas and 1.5% ethrane.
Heparin (10,000 IU) was intravenously injected, and thereafter the subrenal ventral aorta was cannulated. […] The gallbladder was dissected, and washed with physiological saline. The resultant liver was taken out, and immersed in a UW fluid bath. […] The transplant liver was preserved at 4°C for 8 hr.
Each of the recipient swine was also anesthetized in the same manner as described above with respect to the surgical operation of the donors. The right carotid artery and the right subclavian vein were cannulated for blood pressure monitoring and blood sampling and for intravenous injection, respectively. The abdomen was cut open, and the liver was detached and removed. During the ahepatic period, the blood from the portal vein was passively bypassed through a shunt tube inserted into the portal vein and the right external jugular vein. […] After the completion of the anastomosis with the portal vein, the transplant liver was reperfused with the blood from the portal vein.
The bile duct was drained outside the body through a biliary external fistula tube.
Just before the anastomosis with the portal vein, the transplant liver was perfused with lactated Ringer's solution (500 ml) containing dextrose (5 wt.%), mannitol (1.25 wt.%) and sodium bicarbonate (0.21 wt.%) to thereby remove the preservation fluid. The washing fluid was held at 30 to 37°C. Within 3 min of the hot washing, the transplant liver was reperfused.
During the ahepatic period starting with the initiation of the surgical operation, physiological saline (500 ml) containing dextrose (2.5 wt.%) was administered through the auricular vein. For the Group 1, the compound (I) (0.3 mg/kg) was mixed in the saline solution. During the ahepatic period, 500 to 750 ml of physiological saline containing sodium bicarbonate (0.21 wt.%) was rapidly injected in order to prevent blood pressure lowering. Sodium bicarbonate (1.05 g) and calcium gluconate (0.1 g) were intravenously administered prior to the reperfusion of the transplant liver. During the surgical operation, no transfusion was conducted, and a total of 1.5 to 2.0 ℓ of infusion solution was administered. […]

Large-White pigs = assay: Orthotopic liver transplantation following 8 hour cold preservation in pigs (second description); type: in vivo
Description: Orthotopic liver transplantations following 8 hour cold preservation were performed. Large-White pigs weighing 35-40 Kg were used after 24 hours starvation. Pigs were randomly divided into 2 groups. In Group 1, the PAF antagonist treatment group, consisting of 9 donors and 9 recipients, the PAF antagonist the compound (I) was given in the solutions (1mg/L) for flush-out and preservation at donor operation. It was also administered into recipients (0.3mg/Kg body weight) as an infusion and given in the solution (1mg/L) for rinsing before reperfusion of the graft (RPF) at recipient operation. Group 2, the untreated control group, consisted of 9 donors and 9 recipients that received the same solutions or intravenous infusion only without the compound (I). The solutions for flush-out and preservation of the graft liver were simplified UW solution in which hydroxyethyl starch was omitted from the original formulation of UW solution described for liver preservation, according to the reports showing that hydroxyethyl starch is not an essential component in UW solution.
Following premedication with ketamine (10mg/Kg i.m.), the ear vein was cannulated and saline perfusion was started. After injection of ketamine (5mg/Kg i.v.) and pancuronium (0.2mg/Kg i.v.), the animals were […]. Anesthesia was maintained by inhalation with 3L oxygen, 4L nitrous oxide and 1.5% ethranne. […] Following intravenous injection of heparine (10,000IU), the subrenal abdominal aorta was cannulated. […] The gallbladder was incised and washed with saline. The liver was harvested and dipped in 4üÄ UW solution bath.
The recipient pigs were anesthesized as described in donor operation. The right carotid artery and the right subclavian vein were then cannulated for blood pressure monitoring and blood sampling and for intravenous fluid infusion, respectively. After laparotomy, the liver was dissected free and removed. During anhepatic period, the portal blood was passively shunted by a tube between the portal vein and the right external jugular vein. […] The graft liver was reperfused with the portal blood after completion of the portal vein anastomosis. The bile duct was drained by external tube fistula. Immediately before the anastomosis of the portal vein, to remove the preservation solution, the graft liver was flushed with 500ml of Ringers lactate containig dextrase (5g%), mannitol (1.25g%) and sodium bicarbonate (0.21g%) as previously described. […] In our operations, the duration between the warm rinsing and RPF was less than 3 miniutes by using the cuff technique in portal vein anastomosis.
Intraoperative fluid infusion was as follows; 500ml of saline containing dextrose (2.5g%) was infused through the ear vein between the begining of the operation and the anhepatic period. In Group 1, The compound (I) (0.3mg/Kg) was mixed in this solution. During the anhepatic period, 500-750ml of saline containing sodium bicarbonate (0.21g%) was rapidly infused to prevent hypotension. Prior to RPF, sodiumu bicarbonate (1.05g) and calcium gluconate (0.1g) were injected intravenously. As a total, 1.5-2L of the fluid was infused during operation without any blood transfusion. Postoperatively, 0.5-1.0L of 5% dextrose solution was infused for the first 12 hours. Sodium bicarbonate was given to correct metabolic acidosis when necessary. No immunosuppressant was administered.
(§2) (1-Ethyl-2-[N-(2-methoxy)benzoyl-N-[(2R)-2-methoxy-3-( 4-octadecylcarbamoyloxy)piperidinocarbonyloxypopoxy]carbonyl]aminomethylpyridinium chloride, molecular weight 860.5) was supplied in powder form by Eisai Co.,Ltd. (Japan). It is soluble in water and saline, and a 1.5 mg/ml solution was prepared with saline immediately before use.
AKBR was measured at the time of cannulation in the right carotid artery (before), and at 1, 2, 4 and 12 hours after RPF. […]

[3] = Solubility in water and physiological saline; type: physicochemical
Description: The compound (I) soluble in both water and physiological saline was dissolved in physiological saline to prepare a solution of the compound (I) (1.5 mg/ml) prior to use.
as §2

human platelets = settings: reported value; read-out: IC50 value, inhibition of aggregation of human platelets induced by PAF; cited from earlier work
[4] = Group 1, 4 hr after the reperfusion (p<0.05)

**Q.** With `COC1=C(OC)C(=O)C(C/C=C(\C)CC/C=C(\C)CC/C=C(\C)CC/C=C(\C)CC/C=C(\C)CC/C=C(\C)CC/C=C(\C)CC/C=C(\C)CC/C=C(\C)CCC=C(C)C)=C(C)C1=O` [coenzyme Q₁₀] as the molecule, how does the one-week survival rate ([1]; 10 mg/kg intravenously to the donor rats prior to the operation) read?
**A.** about 50%

**Q.** What about the one-week survival rate ([1]; 10 mg/kg intravenously to the recipient rats prior to the operation) of the same molecule?
**A.** about 50%

**Q.** For `CCCCCCCCCCCCCCCCCCNC(=O)OC1CCN(C(=O)OCC(COC(=O)N(Cc2cccc[n+]2CC)C(=O)c2ccccc2OC)OC)CC1.[Cl-]` (stereo not drawn) [compound (I), 1-ethyl-2-[N-(2-methoxy)benzoyl-N-{2-methoxy-3-(4-octadecylcarbamoyloxy)piperidinocarbonyloxypropoxy}carbonyl]aminomethylpyridinium chloride], which “Acute toxicity (LD₅₀)” value (Slc:ICR mice; Female) is on record?
**A.** 50.0 mg/kg

**Q.** And the “Acute toxicity (LD₅₀)” value (Slc:ICR mice; Male)?
**A.** 46.8 mg/kg

**Q.** And the “LD₅₀ values relative to the clinical dose in intravenous injection” value (Slc:ICR mice; mouse LD₅₀ values of Table 1)?
**A.** ≥ 50 times

**Q.** What about the “Acute toxicity (LD₅₀)” value (Slc:SD rats; Female) of the same molecule?
**A.** 22.8 mg/kg

**Q.** And the “Acute toxicity (LD₅₀)” value (Slc:SD rats; Male)?
**A.** 18.2 mg/kg

**Q.** What about the “LD₅₀ values relative to the clinical dose in intravenous injection” value (Slc:SD rats; rat LD₅₀ values of Table 1) of the same molecule?
**A.** ≥ 50 times

**Q.** What about the hematocrit values ([2]; Group 1 (both groups alike), course after the reperfusion) of the same molecule?
**A.** rapidly increased 2 hr after the reperfusion, and gradually decreased thereafter

**Q.** What about the “survival of all of the 9 swine” value ([2]; Group 1 (treated group)) of the same molecule?
**A.** at least 4 days

**Q.** What about the “12-hr or longer survinal rate” value ([2]; Group 1, 9/9, Group 2 (untreated) 56% (5/9)) of the same molecule?
**A.** 100%

**Q.** And the “lactate level of arterial blood” value ([2]; Group 1, 2 hr after the reperfusion)?
**A.** 9.9 ± 1.0 mmol/L

**Q.** What about the platelet count ([2]; Group 1, 2 hr later) of the same molecule?
**A.** 309.8 ± 21.6 ×10³/µℓ

**Q.** What about the leukocyte count ([2]; Group 1, 2 hr later (p<0.01 vs Group 2)) of the same molecule?
**A.** 14.3 ± 1.8 ×10³/µℓ

**Q.** And the GOT level [2, 4]?
**A.** 712 ± 97 U/ℓ

**Q.** What about the GPT level [2, 4] of the same molecule?
**A.** 65 ± 4 U/ℓ

**Q.** And the “lactate level of arterial blood” value [2, 4]?
**A.** 6.2 ± 1.1 mmol/L

**Q.** What about the “lactate level of arterial blood” value ([2]; Group 1, 12 hr after the reperfusion) of the same molecule?
**A.** recovered to the initial level

**Q.** And the AKBR ([2]; Group 1, 12 hr after the reperfusion, significantly higher than Group 2 (p<0.05))?
**A.** recovered to the normal condition level

**Q.** What about the platelet count ([2]; Group 1, 12 hr later) of the same molecule?
**A.** 227.8 ± 13.4 ×10³/µℓ

**Q.** And the AKBR ([2]; Group 1, during 4 hr after the reperfusion, compared with Group 2)?
**A.** only slightly higher than that of the Group 2

**Q.** What about the leukocyte count ([2]; Group 1, prior value) of the same molecule?
**A.** 11.5 ± 1.1 ×10³/µℓ

**Q.** What about the platelet count ([2]; Group 1, prior value) of the same molecule?
**A.** 294.4 ± 19.8 ×10³/µℓ

**Q.** What about the “Histologic study (optical microscope): hepatocyte necroses, stagnation of hepatosinusoidal inflammatory cells, vacuolar degeneration” value ([2]; Group 1, reperfused liver 1 hr after the reperfusion) of the same molecule?
**A.** little observed

**Q.** And the “glycogen content of the hepatocytes (staining)” value ([2]; Group 1 versus Group 2, 1 hr after the reperfusion)?
**A.** the glycogen content of the hepatocytes in the Group 2 was smaller than that in the Group 1

**Q.** What about the “Period of Survival” value ([2]; individual recipient swine of Group 1 (treated): 1 mg/ℓ in perfusate, preservation fluid and washing fluid, 0.3 mg/kg i.v. to recipients, 0.3 mg/kg) of the same molecule?
**A.** 7 days or more (4×) and 4 days and 5 days and 6 days (2×) and 7 days

**Q.** And the hematocrit values (Large-White pigs; Group 1 (both groups alike), course after RPF)?
**A.** increased markedly at 2 hours after RPF, and then gradually decreased

**Q.** And the “survival of all the 9 pigs” value (Large-White pigs; Group 1 (treated))?
**A.** more than 4 days

**Q.** And the platelet count (Large-White pigs; Group 1, at 2 hours after RPF)?
**A.** slightly increased at 2 hours

**Q.** What about the “lactate level in arterial blood” value (Large-White pigs; Group 1, at 12 hours after RPF) of the same molecule?
**A.** restored to the primary levels

**Q.** What about the “Histological examination by light microscopy (HE stain): necrosis of hepatocytes, exudate of inflammatory cells, microvesicular changes” value (Large-White pigs; Group 1, reperfused liver at 1 hour after RPF) of the same molecule?
**A.** rarely seen

**Q.** What about the “content of glycogen in hepatocytes (PAS staining)” value (Large-White pigs; Group 1 versus Group 2, at 1 hour after RPF) of the same molecule?
**A.** lesser content of glycogen in hepatocytes in Group 2 than in Group 1

**Q.** And the AKBR (Large-White pigs; Group 1 versus Group 2, at 4 hours after RPF)?
**A.** tendency to be higher in Group 1 than in Group 2, though not significant

**Q.** What about the Survival (Large-White pigs; individual pigs of Group 1 (n=9) (treated): 1mg/L in flush-out, preservation and rinsing solutions, 0.3mg/Kg infusion to recipients, 0.3 mg/kg) of the same molecule?
**A.** >7 POD (4×) and 4 POD and 5 POD and 6 POD (2×) and 7 POD

**Q.** What about the solubility [3] of the same molecule?
**A.** soluble

**Q.** What about the IC50 (human platelets) of the same molecule?
**A.** 0.66 nM
